Test results as given in US9957214B2, “Multifunctional radical quenchers” (ARIZONA BOARD OF REGENTS ON BEHALF OF ARIZONA STATE …, priority 2012, dated 2018).

How the values were obtained:
FRDA lymphocytes = experiment: Suppression of lipid peroxidation (C11-BODIPY581/591, FACS) in FRDA lymphocytes treated with diethyl maleate; format: cell-based; details: Lymphocyte, DEM, read-out: Scavenging activity (%), suppression of lipid peroxidation
Text: Several methods for assaying lipid peroxidation in vitro have been developed (Kuypers et al. (1987) Biochim Biophys Acta. 25, 266-274; Pap et al. (1999) FEBS Lett. 453, 278-282; Drummen et al. (2002) Free RadicBiol Med. 33, 473-490). Almost all of these methods are based on inhibition of free radical-induced oxidation reactions. A widely used fluorescence assay for lipid peroxidation uses lipid soluble cis-parinaric acid as a probe. cis-parinaric acid loses its fluorescence (λexc/em: 320/432 nm) upon interaction with peroxyl radicals and retains its fluorescence in the presence of radical quenchers. cis-parinaric acid is, however, air sensitive, photolabile and absorbs light in the UV region of the spectrum (at ˜320 nm). […] In practical terms, the results obtained using cis-parinaric as a probe for lipid peroxidation are confounded due to the overlapping of the compounds emission spectra with the cis-parinaric emission spectrum. C11-BODIPY^581/591 Oxidation to Measure Lipid Peroxidation To overcome the problem of spectral overlap using cis-parinaric acid, a fluorescence assay for lipid peroxidation using a lipophilic probe belonging to the BODIPY class of fluorescent dyes was used C11-BODIPY^581/591 (4,4-difluoro-5(4-phenyl-1,3-butadienyl)-4-bora-3a, 4a-diaza-s-indacene-3-propionic acid) fluorescent shifts from red to green upon oxidation. C11-BODIPY^581/591 (Molecular Probes, Eugene, Oreg., USA) stock solution concentrations were determined by measuring the absorption of C11-BODIPY^581/591 at 582 nm using a molar extinction coefficient of 140,000 mol^−1 cm^−1 (R. P. Haugland, (1999) Handbook of Fluorescent Probes and Research Chemicals, Molecular Probes, Inc., Eugene, Oreg.). The lipid peroxidation inducer 2,2′-Azobis (2-amidino-propane dihydrochloride) (AAPH) and the antioxidant compound α-tocopherol (α-TOH) were obtained from Sigma (St. Louis, Mo., USA). Phospholipid bilayers were prepared from 1-stearoyl-2-oleoyl-phosphatidylcholine (SOPC) and 1,2-dilinoleoyl-phosphatidylcholine (DLPC) and were purchased from Avanti® polar lipids, Inc., (Alabaster, Ala., USA). Preparation of Liposomes Phosphotidylcholine (PC) liposomes were prepared as described before (Guey-Shuang et al. (1982) Lipids. 17, 403-413). Briefly, DLPC (25 mg) were dissolved in chloroform and the solvent was removed by nitrogen evaporation (˜2 hours) to give a thin film of PC in a round bottom flask. The lipid film was hydrated with 50 mL of 10 mM Tris-HCl (pH 7.4), 100 mM KCl, shaken and sonicated for 15 seconds. The liposomes obtained were filtered several times through […] membrane filter. Measurement of C11-BODIPY^581/591 Oxidation C11-BODIPY^581/591 was incorporated into liposomes and oxidized by peroxyl radicals derived from the decomposition of AAPH in the presence and absence of compounds. Liposomes (1 mg/mL), suspended in 10 mM Tris-HCl (pH 7.4), 100 mM KCl, were transferred to a quartz 1 mL cuvette and placed in a Varian Cary Eclipse fluorometer (Varian, Cary, N.C.) equipped with a thermostatted cuvette holder at 40° C. Liposomes were pre-incubated for 10 min with 200 nM C11-BODIPY^581/591 to allow their incorporation into the lipid phase of the liposomes. After the addition of AAPH (10 mM) the decay of the red fluorescence was followed at λ exc=570 nm, λ em=600 nm. Relative fluorescence units were normalized to 100% intensity. Results obtained were verified by repeating experiments N=3 independent experiments. Measurement of C11-BODIPY^581/591 Oxidation in Cell Culture A quantitative FACS analysis of lipid peroxidation of FRDA lymphocytes, which had been treated with diethyl maleate following incubation in the presence and absence of the test compounds, was measured as described (Khdour et al. (2011) Pharmaceut. Res. 28, 2896-2909). Briefly, FRDA lymphocytes (5×10^5 cell/mL) were treated with the test compounds at final concentrations of 5 and 10 μM and incubated at 37° C. for 16 h in a humidified atmosphere containing 5% CO2 in air. […]

[1] = tested on: Friedreich's ataxia lymphoblast cell line GM15850; experiment: Cytoprotection (trypan blue exclusion assay) of DEM-treated FRDA lymphocytes; format: cell-based; details: Homo sapiens, GM15850, DEM alone 18 ± 10% viability, read-out: Cytoprotection (cell viability, % of untreated control)
Summary of the method: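 GM15850 FRDA lymphoblasts at 5×10^5 cells/mL pre-incubated with test compounds for 17 h at 37 °C, then exposed to 5 mM DEM to deplete GSH. Viability by 0.4% trypan blue exclusion, ≥500 cells counted per group, expressed as % of non-DEM control; means±S.E.M., n=3.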

[2] = tested on: NADH oxidase (complexes I, III and IV); experiment: NADH oxidase activity (complexes I, III and IV) in submitochondrial particles; format: biochemical, bovine

| Compound | inhibition at 5 µM (FRDA lymphocytes) [%] | inhibition at 10 µM (FRDA lymphocytes) [%] | viability at 5 µM [1] [%] | NADH oxidase activity (Complex I, III, IV) % ([2]; 1 μM) | NADH oxidase activity (Complex I, III, IV) % ([2]; 5 μM) | viability at 1 µM [1] [%] | NADH oxidase activity (Complex I, III, IV) % ([2]; 10 μM) [%] | inhibition at 1 µM (FRDA lymphocytes; 1 μM) [%] | viability at 0.1 µM ([1]; 0.1 μM) [%] | viability at 0.5 µM [1] [%] | viability at 2.5 µM [1] [%] |
| --- | --- | --- | --- | --- | --- | --- | --- | --- | --- | --- | --- |
| CCCCCCCCCCCCCC1=C(OC)C(=O)C=C(NCCCC(=O)OCCCCCC)C1=O [Compound 18, Hexyl 4-(4-methoxy-3,6-dioxo-5-tridecylcyclohexa-1,4-dienylamino)butanoate] | 81 ± 1.6 | 98 | 90 ± 2 | 54 ± 5.0% | 27 ± 3.0% |  |  |  |  |  |  |
| CCCCCCCCCCCCCC1=C(OC)C(=O)C(C)=C(NCCCC(=O)OCCCC)C1=O [Compound 46, Butyl 4-(4-methoxy-2-methyl-3,6-dioxo-5-tridecylcyclohexa-1,4-dienylamino)butanoate] | 60 ± 1 | 70 ± 3 | 95 ± 3 | 86 ± 2^ % | 84 ± 4^ % | 63 ± 4 | 68 ± 1 |  |  |  |  |
| COC1=C2CCCCCCCCCCCCCCCNC(=CC1=O)C2=O [Compound 40] | 72 | 83 | 92 ± 3.5 | 95 ± 3^ % | 85 ± 1^ % |  | 70 ± 1 | 29 ± 4.7 | 36 ± 4.3 | 69 ± 2.3 | 83 |
| CCCCCCCCCCCCCC1=C(NCCCC(=O)OCCCCCC)C(=O)C(C)=C(NCCCC(=O)OCCCCCC)C1=O [Compound 50, 2,5-bis(hexyl 4-aminobutanoate)-3-methyl-6-tridecylcyclohexa-2,5-diene-1,4-dione] | 18 ± 1 | 23 ± 4 | 91 ± 3 | 85 ± 1^ % | 78 ± 6^ % | 11 ± 2 | 70 ± 3 |  |  |  |  |
| CCCCCCCCCCCCCC1=C(OC)C(=O)C=C(NCCCC(=O)OC(C)(C)C)C1=O [Compound 7, tert-butyl 4-(4-methoxy-3,6-dioxo-5-tridecylcyclohexa-1,4-dienylamino)butanoate] | 72 ± 1.8 | 86 | 93 ± 4 | 84 ± 1.0% | 77 ± 4.0% | 80 |  |  |  | 80 | 84 ± 5 |
| CCCCCCCCCCCCCC1=C(OC)C(=O)C(C)=C(NCCCC(=O)OCCCCCC)C1=O [Compound 49, Hexyl 4-(4-methoxy-2-methyl-3,6-dioxo-5-tridecylcyclohexa-1,4-dienylamino)butanoate] | 8 ± 3 | 13 ± 3 | 87 ± 4 | 74 ± 2^ % | 83 ± 2^ % | 16 ± 4 | 74 ± 2 |  |  |  |  |
| CCCCCCCCCCCCCC1=C(OC)C(=O)C(C)=C(NCCCC(=O)OC(C)(C)C)C1=O [Compound 43, tert-butyl 4-(4-methoxy-2-methyl-3,6-dioxo-5-tridecylcyclohexa-1,4-dienylamino)butanoate] | 61 ± 4 | 75 ± 2 | 91 ± 6 | 87 ± 2^ % | 85 ± 1^ % | 67 ± 5 | 80 ± 1 |  |  |  |  |
